Literature values, collected in patent US12048763B2, “Compositions and methods for treating sialorrhea” (priority 2021, dated 2024).

Settings: by 6 months

C[N+]1(C)CCC(OC(=O)C(O)(c2ccccc2)C2CCCC2)C1 (stereo not shown) [glycopyrrolate]
participants no longer taking the drug due to adverse effects: 45%
